Tests used:
[1] = system: subcutaneous EOL-1 tumors; experiment: EOL-1 human eosinophilic leukemia xenograft model; type: in vivo, SCID mice; details: for tumor growth inhibition (TGI): Day 19; for median TGI: day 9
Protocol: Female athymic CB-17 SCID (Harlan Sprague-Dawley) mice between 6–7 weeks of age weighing approximately 22 grams were housed in a 12-h light-dark cycle at 70–74°F (21–23°C) and 40–60% humidity. Animals were fed water ad libitum (reverse osmosis, 2 ppm Cl2) and an irradiated standard rodent diet (Teklad 2919) consisting of 19% protein, 9% fat, and 4% fiber. Mice were injected subcutaneously into the right flank with 1x10^7 EOL-1 cells in 100 μl of a 1:1 HBSS:Matrigel solution. When tumors reached approximately 125–250 mm^3, animals were matched by tumor volume and then randomized into treatment and control groups before dosing was initiated. […] Cytarabine, also known as cytosine arabinoside (AraC), was administered by daily ip injection for 5 days only. Agent toxicity was assessed by effects on body weight and clinical signs. Animals were weighed twice weekly using a digital scale (Ohaus SP601). Beginning on Day 0, tumor dimensions were measured twice weekly by digital caliper (Fowler Ultra-Cal IV); tumor volume was calculated using the formula TV = width^2 x length x 0.52. […] Statistical differences in tumor volume were determined using a two-tailed One-Way Analysis of Variance (ANOVA) followed by the Dunnett’s multiple comparisons test comparing treated groups with control. For animal welfare the following methods were used: (a) methods of sacrifice: isoflurane anesthesia followed by cervical dislocation; (b) methods of anesthesia and/or analgesia: isoflurane anesthesia and (c) efforts to alleviate suffering: carprofen if animal veterinarian decides necessary or euthanasia.

[2] = system: all five cell lines (Cal51, MDA-MB-468, HCC1954, MCF10A, 184A1); experiment: Standard 72 h viability assay, breast panel; type: cell-based; details: Homo sapiens
Protocol: Solid tumor cell lines were seeded in 100 μl medium into 96-well plates at an appropriate cell number determined by a cell dilution assay (Cal51–2000 cells/well; Colo205, MCF10A and 184A1–3000 cells/well and MDA-MB-468, HCC1954–4000 cells/well). AML suspension cells were seeded in 96-well plates at approximately 3000 cells per well. Cells were incubated overnight at 37°C, 5% CO2. The following day, 100 μl fresh medium containing increasing concentrations of appropriate compound was added and the cells were incubated for up to 72 h at 37°C, 5% CO2. For pulse treatment of solid (adherent) tumor cell lines, medium was aspirated and replaced with fresh drug-free medium. For pulse treatment of suspension lines, plates were centrifuged at 478 xg for 5 min at the end of the incubation period with compound, medium containing compound was carefully aspirated and replaced with fresh compound-free medium. A total of 72 h after the start of treatment, 20 μl of a 10X stock of resazurin sodium salt (Sigma-Aldrich, Dorset, UK) prepared in medium was added to the cells and incubated for up to 3 h. […] was measured on the Wallac Victor plate reader (Cambridge, UK) at 544–595 nm. IC50/70/90 calculations were determined in XLFit.

MCL1 = system: MCL1; parameters: method as in earlier work; details: patient PBMCs; recommended phase 2 dose; cited from earlier work
Kasumi-1 cells = experiment: Viacount viability assay by flow cytometry; type: cell-based, human; details: 6 h pulse, 0.5 or 1.0 μM, assessed at 24 h
Protocol: (§1) AML cells were seeded at 5 x 10^5 cells/ml in a 6-well plate and incubated with the test compound or vehicle control (DMSO) for 6, 8 or 10 h. At the end of the incubation period, cells were collected into Falcon tubes, pelleted via centrifugation (5 min at 478 x g), and medium containing compound was aspirated. The cells were resuspended in 4 ml of fresh compound-free medium and returned to the 6-well plates for further incubation. Following compound addition, 100 μl (at 24 h), 75 μl (at 48 h), 50 μl (at 72 h) or 30 μl (at 96 h) of a homogeneous suspension of cells were removed from the culture, made up to 100 μl with medium and mixed with 100 μl Guava Viacount reagent (Millipore, Nottingham, UK) in a 96-well plate. Samples were incubated for 20 min in the dark, mixed and then analyzed by GuavaSoft 2.6 software on the Guava Easycyte 8HT (Millipore). Guava Viacount software was used to gate and calculate the proportion of viable and dead cells in the population.

KG-1 = experiment: Viacount viability assay by flow cytometry; type: cell-based, human; details: 6 h pulse, up to 2 μM, assessed at 48 h
Protocol: as §1

HEL = experiment: Viacount viability assay by flow cytometry; type: cell-based, human; details: 6 h pulse, up to 2 μM, assessed at 48 h
Protocol: as §1

PKCa = biological target: T1, PKCa (Homo sapiens, UniProt P17252); experiment: Carna kinase panel screen; type: biochemical; details: read-out: % Inhibition ± SD
T1 construct: purchased Carna Biosciences
Protocol: (§2) IC50 values were determined from a 10-point concentration curve using ATP concentrations approximating Km values. […] The percentage inhibition of each test solution was calculated, which allowed the IC50 value to be determined from concentration versus percentage inhibition curves by fitting to a four parameter logistic curve.

COT = biological target: T2, COT (Homo sapiens, UniProt P41279); experiment: Carna kinase panel screen; type: biochemical; details: read-out: % Inhibition ± SD
T2 construct: purchased Carna Biosciences
Protocol: as §2

RSK4 = biological target: T3, RSK4 (Homo sapiens, UniProt Q9UK32); experiment: Carna kinase panel screen; type: biochemical; details: read-out: % Inhibition ± SD
T3 construct: purchased Carna Biosciences
T3 sequence (Q9UK32 whole entry): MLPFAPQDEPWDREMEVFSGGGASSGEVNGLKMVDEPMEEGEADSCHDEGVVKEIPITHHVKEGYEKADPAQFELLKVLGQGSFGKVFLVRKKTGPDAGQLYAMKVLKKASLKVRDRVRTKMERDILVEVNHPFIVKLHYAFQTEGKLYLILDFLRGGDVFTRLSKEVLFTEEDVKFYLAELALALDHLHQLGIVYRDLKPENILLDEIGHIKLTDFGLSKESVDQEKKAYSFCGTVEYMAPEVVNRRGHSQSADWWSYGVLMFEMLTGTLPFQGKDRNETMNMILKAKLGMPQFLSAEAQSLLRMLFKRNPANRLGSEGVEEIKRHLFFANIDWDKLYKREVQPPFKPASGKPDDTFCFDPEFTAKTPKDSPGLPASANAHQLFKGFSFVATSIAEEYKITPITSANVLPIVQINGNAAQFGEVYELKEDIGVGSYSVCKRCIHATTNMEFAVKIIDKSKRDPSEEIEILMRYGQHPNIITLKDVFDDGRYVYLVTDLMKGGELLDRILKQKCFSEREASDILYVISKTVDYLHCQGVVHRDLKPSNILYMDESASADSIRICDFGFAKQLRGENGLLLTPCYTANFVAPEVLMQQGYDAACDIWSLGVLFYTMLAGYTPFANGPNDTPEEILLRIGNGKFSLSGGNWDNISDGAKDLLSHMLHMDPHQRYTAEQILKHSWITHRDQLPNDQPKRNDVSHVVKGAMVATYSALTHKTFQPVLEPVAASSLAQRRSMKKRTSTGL
Protocol: as §2

BRK = biological target: T4, BRK (Homo sapiens, UniProt Q13882); experiment: Carna kinase panel screen; type: biochemical; details: read-out: % Inhibition ± SD
T4 construct: purchased Carna Biosciences
T4 sequence (Q13882 whole entry): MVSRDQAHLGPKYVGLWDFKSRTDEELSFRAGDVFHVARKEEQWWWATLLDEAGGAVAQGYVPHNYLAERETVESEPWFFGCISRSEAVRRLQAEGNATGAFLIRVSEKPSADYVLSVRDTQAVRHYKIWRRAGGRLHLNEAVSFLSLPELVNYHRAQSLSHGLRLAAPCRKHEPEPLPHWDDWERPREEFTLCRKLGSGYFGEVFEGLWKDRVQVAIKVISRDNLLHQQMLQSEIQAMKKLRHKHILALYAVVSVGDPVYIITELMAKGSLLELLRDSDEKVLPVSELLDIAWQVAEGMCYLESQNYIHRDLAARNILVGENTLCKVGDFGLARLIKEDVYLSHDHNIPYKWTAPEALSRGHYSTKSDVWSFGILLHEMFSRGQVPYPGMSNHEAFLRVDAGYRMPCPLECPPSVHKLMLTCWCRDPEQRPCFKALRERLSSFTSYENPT
Protocol: as §2

Erk1 = biological target: T5, Erk1 (Homo sapiens, UniProt P27361); experiment: Carna kinase panel screen; type: biochemical; details: read-out: % Inhibition ± SD
T5 construct: purchased Carna Biosciences
T5 sequence (P27361 whole entry): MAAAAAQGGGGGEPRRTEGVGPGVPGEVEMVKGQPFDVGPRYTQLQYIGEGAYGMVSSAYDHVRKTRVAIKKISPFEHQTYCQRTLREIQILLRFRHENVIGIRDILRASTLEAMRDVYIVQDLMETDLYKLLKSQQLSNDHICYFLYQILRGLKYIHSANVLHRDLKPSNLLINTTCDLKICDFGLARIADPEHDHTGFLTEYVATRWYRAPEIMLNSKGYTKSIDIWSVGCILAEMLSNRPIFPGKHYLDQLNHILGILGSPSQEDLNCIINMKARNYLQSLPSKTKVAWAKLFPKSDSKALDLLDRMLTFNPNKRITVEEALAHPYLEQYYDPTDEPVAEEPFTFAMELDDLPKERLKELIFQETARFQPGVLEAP
Protocol: as §2

MRCKa = biological target: T6, MRCKa (Homo sapiens, UniProt Q5VT25); experiment: Carna kinase panel screen; type: biochemical; details: read-out: % Inhibition ± SD
T6 construct: purchased Carna Biosciences
Protocol: as §2

PLK2 = biological target: T7, PLK2 (Homo sapiens, UniProt Q9NYY3); experiment: Carna kinase panel screen; type: biochemical; details: read-out: % Inhibition ± SD
T7 construct: purchased Carna Biosciences
T7 sequence (Q9NYY3 whole entry): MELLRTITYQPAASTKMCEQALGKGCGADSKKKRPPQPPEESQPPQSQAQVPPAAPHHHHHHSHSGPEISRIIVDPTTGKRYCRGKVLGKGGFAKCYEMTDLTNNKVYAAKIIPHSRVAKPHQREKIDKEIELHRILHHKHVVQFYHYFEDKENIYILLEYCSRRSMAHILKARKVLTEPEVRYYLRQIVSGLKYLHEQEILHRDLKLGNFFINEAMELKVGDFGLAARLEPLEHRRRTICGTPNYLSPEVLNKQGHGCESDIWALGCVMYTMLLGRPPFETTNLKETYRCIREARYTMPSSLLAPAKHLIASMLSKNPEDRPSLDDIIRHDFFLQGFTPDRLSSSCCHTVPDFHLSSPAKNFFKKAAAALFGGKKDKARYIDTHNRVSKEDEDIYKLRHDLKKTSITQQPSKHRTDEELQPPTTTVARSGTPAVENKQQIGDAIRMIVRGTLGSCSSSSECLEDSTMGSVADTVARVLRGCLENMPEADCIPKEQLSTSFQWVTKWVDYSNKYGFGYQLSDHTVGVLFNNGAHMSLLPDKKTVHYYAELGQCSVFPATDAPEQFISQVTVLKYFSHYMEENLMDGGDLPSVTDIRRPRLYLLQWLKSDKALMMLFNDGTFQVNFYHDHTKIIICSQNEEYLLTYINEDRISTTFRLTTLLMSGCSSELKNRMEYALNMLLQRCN
Protocol: as §2

ARG = biological target: T8, ARG (Homo sapiens, UniProt P42684); experiment: Carna kinase panel screen; type: biochemical; details: read-out: % Inhibition ± SD
T8 construct: purchased Carna Biosciences
Protocol: as §2

PAK6 = biological target: T9, PAK6 (Homo sapiens, UniProt Q9NQU5); experiment: Carna kinase panel screen; type: biochemical; details: read-out: % Inhibition ± SD
T9 construct: purchased Carna Biosciences
T9 sequence (Q9NQU5 whole entry): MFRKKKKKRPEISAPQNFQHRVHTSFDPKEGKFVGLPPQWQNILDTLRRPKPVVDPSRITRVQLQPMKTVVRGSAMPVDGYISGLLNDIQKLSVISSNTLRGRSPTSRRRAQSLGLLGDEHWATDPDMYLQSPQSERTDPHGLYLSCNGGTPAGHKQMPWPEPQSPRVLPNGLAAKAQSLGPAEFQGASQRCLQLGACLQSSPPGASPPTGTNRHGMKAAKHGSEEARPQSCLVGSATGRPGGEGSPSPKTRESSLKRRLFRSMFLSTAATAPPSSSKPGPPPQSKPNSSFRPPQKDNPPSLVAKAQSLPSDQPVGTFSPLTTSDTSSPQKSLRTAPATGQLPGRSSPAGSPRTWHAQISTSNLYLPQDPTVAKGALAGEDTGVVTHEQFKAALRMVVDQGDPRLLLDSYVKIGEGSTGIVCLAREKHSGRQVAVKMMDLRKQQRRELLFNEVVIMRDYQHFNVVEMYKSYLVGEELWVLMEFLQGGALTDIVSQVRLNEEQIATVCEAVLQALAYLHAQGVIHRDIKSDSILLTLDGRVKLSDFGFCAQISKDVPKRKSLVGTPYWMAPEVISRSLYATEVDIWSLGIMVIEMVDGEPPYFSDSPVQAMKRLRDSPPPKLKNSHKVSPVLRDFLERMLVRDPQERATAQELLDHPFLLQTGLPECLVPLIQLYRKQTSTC
Protocol: as §2

FGFR4 = biological target: T10, FGFR4 (Homo sapiens, UniProt P22455); experiment: Carna kinase panel screen; type: biochemical; details: read-out: % Inhibition ± SD
T10 construct: purchased Carna Biosciences
T10 sequence (P22455 22-802): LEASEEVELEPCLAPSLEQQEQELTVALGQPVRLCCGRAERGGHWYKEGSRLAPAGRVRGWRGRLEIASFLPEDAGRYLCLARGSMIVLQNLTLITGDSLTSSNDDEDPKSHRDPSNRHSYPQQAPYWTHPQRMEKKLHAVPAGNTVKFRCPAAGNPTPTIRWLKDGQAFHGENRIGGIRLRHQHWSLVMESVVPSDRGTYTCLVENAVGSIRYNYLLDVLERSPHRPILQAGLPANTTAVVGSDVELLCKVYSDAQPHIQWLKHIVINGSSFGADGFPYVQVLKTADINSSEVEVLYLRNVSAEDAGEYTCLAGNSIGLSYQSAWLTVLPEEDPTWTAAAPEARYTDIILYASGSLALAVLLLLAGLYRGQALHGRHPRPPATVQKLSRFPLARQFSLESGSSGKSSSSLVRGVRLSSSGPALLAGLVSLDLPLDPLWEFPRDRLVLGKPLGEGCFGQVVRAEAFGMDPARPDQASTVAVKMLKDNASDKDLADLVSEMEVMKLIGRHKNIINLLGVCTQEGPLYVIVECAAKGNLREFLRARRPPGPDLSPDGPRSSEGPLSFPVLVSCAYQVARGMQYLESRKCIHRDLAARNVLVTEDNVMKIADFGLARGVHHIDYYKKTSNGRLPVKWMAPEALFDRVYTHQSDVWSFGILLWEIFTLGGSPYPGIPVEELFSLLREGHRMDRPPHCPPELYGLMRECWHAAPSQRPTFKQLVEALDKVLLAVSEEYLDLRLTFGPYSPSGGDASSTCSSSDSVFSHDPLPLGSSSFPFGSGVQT
Protocol: as §2

NEK1 = biological target: T11, NEK1 (Homo sapiens, UniProt Q96PY6); experiment: Carna kinase panel screen; type: biochemical; details: read-out: % Inhibition ± SD
T11 construct: purchased Carna Biosciences
Protocol: as §2

CLK1 = biological target: T12, CLK1 (Homo sapiens, UniProt P49759); experiment: Carna kinase panel screen; type: biochemical; details: read-out: % Inhibition ± SD
T12 construct: purchased Carna Biosciences
T12 sequence (P49759 whole entry): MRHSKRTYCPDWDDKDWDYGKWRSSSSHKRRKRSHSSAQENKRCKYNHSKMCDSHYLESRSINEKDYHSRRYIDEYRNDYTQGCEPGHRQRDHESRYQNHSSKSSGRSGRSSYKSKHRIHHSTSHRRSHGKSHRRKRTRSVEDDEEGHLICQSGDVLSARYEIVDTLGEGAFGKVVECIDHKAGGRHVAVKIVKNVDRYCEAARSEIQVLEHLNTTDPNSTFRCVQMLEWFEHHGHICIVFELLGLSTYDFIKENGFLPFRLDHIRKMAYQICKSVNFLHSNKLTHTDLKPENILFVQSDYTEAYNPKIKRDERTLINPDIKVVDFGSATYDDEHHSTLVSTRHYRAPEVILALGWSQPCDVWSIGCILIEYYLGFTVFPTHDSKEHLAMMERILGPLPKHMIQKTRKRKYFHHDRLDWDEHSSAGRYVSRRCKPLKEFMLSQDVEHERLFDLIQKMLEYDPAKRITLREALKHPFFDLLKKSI
Protocol: as §2

SRPK2 = biological target: T13, SRPK2 (Homo sapiens, UniProt P78362); experiment: Carna kinase panel screen; type: biochemical; details: read-out: % Inhibition ± SD
T13 construct: purchased Carna Biosciences
Protocol: as §2

[3] = 40 mg/kg oral qd x 5 for 2 weeks
[4] = 55 mg/kg oral qd x 5 for 2 weeks

## CC[C@H](Nc1nc(NCc2cnc(C)cc2C)c2ncn(C(C)C)c2n1)[C@@H](C)O [Fadraciclib, 2-pentanol, 3-[[6-[[(4,6-dimethyl-3-pyridinyl)methyl]amino]-9-(1-methylethyl)-9Hpurin-2-yl]amino]-, (2R,3S)]
[1]; [3]
  tumor growth inhibition (TGI): 97%
  median TGI: 95%
[1]; 55 mg/kg oral
  transient body weight loss: 2%
[1]; [4]
  tumor growth inhibition (TGI): 100%
  median TGI: 97%
[2]
  IC50: ≤ 400 nM
MCL1
  duration of MCL1 suppression: > 24 h
Kasumi-1 cells
  cells induced into apoptosis (dead cells): up to 80%
KG-1
  apoptosis (non-viable cells): approximately 50%
HEL
  apoptosis (non-viable cells): no appreciable increase in apoptosis
PKCa
  inhibition at 1 µM: 17.8 ± 0.5%
COT
  inhibition at 1 µM: -15.6 ± 0.4%
RSK4
  inhibition at 1 µM: 6 ± 0.2%
BRK
  inhibition at 1 µM: 2.4 ± 0.1%
Erk1
  inhibition at 1 µM: -6.5%
MRCKa
  inhibition at 1 µM: -14.8 ± 0.1%
PLK2
  inhibition at 1 µM: 1%
ARG
  inhibition at 1 µM: 1.8 ± 0.1%
PAK6
  inhibition at 1 µM: -5.4%
FGFR4
  inhibition at 1 µM: -14.8%
NEK1
  inhibition at 1 µM: -18.3 ± 0.1%
CLK1
  inhibition at 1 µM: 70.2 ± 6.8%
SRPK2
  inhibition at 1 µM: -3.8 ± 0.1%

From publication PMC7347136 (PLoS ONE, 2020)
